Results taken from ChEMBL document CHEMBL6083186, “Chromenone: An emerging scaffold in anti-Alzheimer drug discovery” (Bioorg Med Chem Lett, 2024).
Converted amounts (≈) assume the structure as drawn. One block for each molecule: values may come before it.

Tests used:
[1] = molecular target: T1, Acetylcholinesterase (Homo sapiens, UniProt P22303); assay: Inhibition of human AChE using […] as substrate incubated for 20 mins by DTNB reagent based Ellman's method
[2] = organism: Homo sapiens; assay: Selectivity index, ratio of IC50 for human BuChE to IC50 for human AChE
[3] = molecular target: T1, Acetylcholinesterase; assay: Inhibition of human recombinant AChE using acetylthiocholine iodide as substrate preincubated for 15 mins followed by substrate addition measured for 10 mins DTNB reagent based Ellman's method
[4] = molecular target: T1, Acetylcholinesterase; assay: Inhibition of AChE (unknown origin)
[5] = molecular target: T1, Acetylcholinesterase; assay: Inhibition of AChE (unknown origin) by Ellman's method
[6] = molecular target: T2, Cholinesterase (Homo sapiens, UniProt P06276); assay: Inhibition of human BuChE using butyrylthiocholine iodide as substrate pre-incubated for 10 mins followed by substrate addition and measured for 15 mins by Ellman's method
[7] = molecular target: T2, Cholinesterase; assay: Inhibition of BChE (unknown origin) by Ellman's method
[8] = molecular target: T3, Beta-secretase 1 (Homo sapiens, UniProt P56817); assay: Inhibition of BACE1 (unknown origin) using Rh-EVNLDAEFK-Quencher as substrate incubated for 1 hr by FRET assay
[9] = molecular target: T4, Cholinesterase (Equus caballus, UniProt P81908); assay: Inhibition of equine BuChE
[10] = molecular target: T2, Cholinesterase; assay: Inhibition of BuChE (unknown origin)
[11] = molecular target: T5, Amine oxidase [flavin-containing] B (Homo sapiens, UniProt P27338); assay: Inhibition of MAO-B (unknown origin)
T5 sequence (P27338 whole entry): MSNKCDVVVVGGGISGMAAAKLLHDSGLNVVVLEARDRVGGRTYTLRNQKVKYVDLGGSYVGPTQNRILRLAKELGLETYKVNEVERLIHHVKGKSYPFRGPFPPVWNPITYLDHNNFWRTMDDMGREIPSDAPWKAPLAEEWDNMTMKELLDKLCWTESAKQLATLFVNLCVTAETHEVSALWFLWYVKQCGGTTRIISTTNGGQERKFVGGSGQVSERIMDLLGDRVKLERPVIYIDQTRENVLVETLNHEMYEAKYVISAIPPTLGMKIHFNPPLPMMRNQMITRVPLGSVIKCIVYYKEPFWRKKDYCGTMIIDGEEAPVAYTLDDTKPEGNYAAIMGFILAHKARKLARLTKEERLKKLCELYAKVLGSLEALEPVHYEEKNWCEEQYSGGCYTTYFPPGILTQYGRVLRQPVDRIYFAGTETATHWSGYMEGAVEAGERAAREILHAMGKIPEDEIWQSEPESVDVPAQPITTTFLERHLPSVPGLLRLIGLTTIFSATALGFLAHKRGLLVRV

[12] = Antioxidant activity assessed as DPPH radical scavenging activity; type: functional
[13] = molecular target: T3, Beta-secretase 1; assay: Inhibition of BACE1 (unknown origin)
[14] = molecular target: T4, Cholinesterase; assay: Inhibition of equine serum BChE using butyrylthiocholine iodide as substrate by DTNB reagent based Ellman's method
[15] = molecular target: T4, Cholinesterase; assay: Inhibition of equine BChE using BTCh as substrate incubated for 15 mins by Ellmans method
[16] = molecular target: T3, Beta-secretase 1; assay: Inhibition of BACE1 (unknown origin) by FRET assay
[17] = molecular target: Acetylcholinesterase (Electrophorus electricus, UniProt O42275); assay: Inhibition of electric eel AChE
Acetylcholinesterase (Electrophorus electricus, UniProt O42275), sequence (O42275 whole entry): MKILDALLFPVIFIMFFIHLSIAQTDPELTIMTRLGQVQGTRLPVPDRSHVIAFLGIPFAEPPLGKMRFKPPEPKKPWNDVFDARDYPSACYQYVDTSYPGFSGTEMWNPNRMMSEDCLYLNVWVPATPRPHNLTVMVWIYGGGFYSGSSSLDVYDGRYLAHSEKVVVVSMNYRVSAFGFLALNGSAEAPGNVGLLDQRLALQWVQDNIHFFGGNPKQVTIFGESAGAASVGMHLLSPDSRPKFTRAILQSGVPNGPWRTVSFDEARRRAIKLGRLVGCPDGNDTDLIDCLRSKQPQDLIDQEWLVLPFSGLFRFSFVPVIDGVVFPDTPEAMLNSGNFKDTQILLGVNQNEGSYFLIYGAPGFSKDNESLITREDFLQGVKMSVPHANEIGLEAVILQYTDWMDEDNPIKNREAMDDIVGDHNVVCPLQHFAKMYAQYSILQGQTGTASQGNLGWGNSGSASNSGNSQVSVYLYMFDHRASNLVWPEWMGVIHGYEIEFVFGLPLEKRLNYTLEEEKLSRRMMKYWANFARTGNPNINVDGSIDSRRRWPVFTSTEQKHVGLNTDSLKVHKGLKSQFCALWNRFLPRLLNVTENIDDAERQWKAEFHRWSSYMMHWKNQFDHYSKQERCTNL

T4 sequence (P81908 whole entry): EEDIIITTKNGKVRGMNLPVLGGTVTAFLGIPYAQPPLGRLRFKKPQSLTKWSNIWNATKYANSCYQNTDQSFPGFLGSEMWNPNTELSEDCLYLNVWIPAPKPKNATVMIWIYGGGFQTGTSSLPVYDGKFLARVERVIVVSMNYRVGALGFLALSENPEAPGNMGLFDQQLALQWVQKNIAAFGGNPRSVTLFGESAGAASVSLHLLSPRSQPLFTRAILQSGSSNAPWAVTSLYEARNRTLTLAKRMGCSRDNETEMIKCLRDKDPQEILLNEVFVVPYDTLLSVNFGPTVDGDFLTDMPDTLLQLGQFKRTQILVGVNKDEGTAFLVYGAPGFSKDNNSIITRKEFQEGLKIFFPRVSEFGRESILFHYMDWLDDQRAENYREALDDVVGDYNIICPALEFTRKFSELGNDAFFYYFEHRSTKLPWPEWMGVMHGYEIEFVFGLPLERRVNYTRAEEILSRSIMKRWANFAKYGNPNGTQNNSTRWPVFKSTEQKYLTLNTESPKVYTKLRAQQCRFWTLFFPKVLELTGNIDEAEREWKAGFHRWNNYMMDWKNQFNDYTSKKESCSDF
T2 sequence (P06276 whole entry): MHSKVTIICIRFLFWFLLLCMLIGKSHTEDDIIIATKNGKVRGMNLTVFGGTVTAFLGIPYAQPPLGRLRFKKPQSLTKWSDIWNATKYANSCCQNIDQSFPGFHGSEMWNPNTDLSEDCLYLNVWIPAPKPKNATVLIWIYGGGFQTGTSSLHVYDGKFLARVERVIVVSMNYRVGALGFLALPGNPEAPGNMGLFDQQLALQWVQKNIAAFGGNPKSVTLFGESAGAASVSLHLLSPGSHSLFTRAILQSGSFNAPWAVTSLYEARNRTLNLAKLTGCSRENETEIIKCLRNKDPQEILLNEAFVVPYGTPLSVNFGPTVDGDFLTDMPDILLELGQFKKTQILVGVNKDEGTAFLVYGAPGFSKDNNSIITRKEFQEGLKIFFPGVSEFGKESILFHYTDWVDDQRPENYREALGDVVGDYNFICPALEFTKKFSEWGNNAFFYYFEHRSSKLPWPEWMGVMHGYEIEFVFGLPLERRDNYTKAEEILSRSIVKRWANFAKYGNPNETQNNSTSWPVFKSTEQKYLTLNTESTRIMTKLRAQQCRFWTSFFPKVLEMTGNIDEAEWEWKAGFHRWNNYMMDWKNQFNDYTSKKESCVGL
T3 sequence (P56817 whole entry): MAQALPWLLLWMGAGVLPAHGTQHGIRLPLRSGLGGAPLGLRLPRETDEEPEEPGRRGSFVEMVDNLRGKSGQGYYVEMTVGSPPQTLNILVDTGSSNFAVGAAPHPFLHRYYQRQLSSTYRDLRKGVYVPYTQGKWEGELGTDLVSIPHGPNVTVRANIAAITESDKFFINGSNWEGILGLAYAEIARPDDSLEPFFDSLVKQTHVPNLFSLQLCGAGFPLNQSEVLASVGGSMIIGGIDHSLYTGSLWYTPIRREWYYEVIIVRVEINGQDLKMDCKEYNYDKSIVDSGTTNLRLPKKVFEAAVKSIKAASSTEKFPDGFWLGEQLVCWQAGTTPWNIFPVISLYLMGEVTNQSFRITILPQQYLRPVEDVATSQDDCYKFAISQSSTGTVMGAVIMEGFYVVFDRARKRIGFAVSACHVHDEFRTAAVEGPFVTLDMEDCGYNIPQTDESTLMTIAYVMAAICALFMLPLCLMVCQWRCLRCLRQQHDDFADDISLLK
T1 sequence (P22303 whole entry): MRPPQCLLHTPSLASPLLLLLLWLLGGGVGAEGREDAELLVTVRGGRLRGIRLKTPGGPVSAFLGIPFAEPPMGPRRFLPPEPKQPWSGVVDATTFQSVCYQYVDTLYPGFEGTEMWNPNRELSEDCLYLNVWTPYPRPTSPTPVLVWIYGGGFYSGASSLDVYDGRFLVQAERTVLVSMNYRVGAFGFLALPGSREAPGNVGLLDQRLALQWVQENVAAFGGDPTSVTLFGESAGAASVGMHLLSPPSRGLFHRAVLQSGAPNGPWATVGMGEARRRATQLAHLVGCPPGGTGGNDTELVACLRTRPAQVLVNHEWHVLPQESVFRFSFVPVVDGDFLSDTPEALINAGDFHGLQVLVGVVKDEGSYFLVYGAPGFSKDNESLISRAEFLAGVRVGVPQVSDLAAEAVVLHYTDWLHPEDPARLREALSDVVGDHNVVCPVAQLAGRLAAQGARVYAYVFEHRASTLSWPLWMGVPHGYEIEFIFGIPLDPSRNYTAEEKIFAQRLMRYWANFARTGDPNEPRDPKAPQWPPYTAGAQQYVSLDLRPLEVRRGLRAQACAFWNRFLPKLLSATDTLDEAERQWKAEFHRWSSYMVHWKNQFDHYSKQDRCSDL

SMILES: Cc1cc(=O)oc2cc(OCc3nnc(-c4ccc(O)c(O)c4)o3)ccc12
- IC50 [1]: 29.6 µM
- Ratio IC50 [2]: 1.55

SMILES: CC(C)c1cc2cc3ccc(=O)oc3cc2o1
- IC50 [3]: 86.5 µM

SMILES: COc1cccc2cc(-c3ccc(NC(=O)c4ccc(CCl)cc4)cc3)c(=O)oc12
- IC50 [4]: 0.091 µM

SMILES: Cc1cc(=O)oc2cc(OCC(=O)N/N=C\c3ccc(C(=O)O)cc3)ccc12
- IC50 [5]: 0.802 µM

SMILES: Cc1cc(=O)oc2cc(OCc3nnc(Cc4cccc5c4OCO5)o3)ccc12
- IC50 [6]: 24 µM

SMILES: COc1ccc2ccc(=O)oc2c1 [HERNIARIN]
- IC50 [5]: 104 µM
- IC50 [7]: 119 µM
- IC50 [8]: 172 µM

SMILES: COc1cccc2cc(-c3ccc(NC(=O)c4ccc(F)cc4)cc3)c(=O)oc12
- IC50 [9]: 0.55 µM

SMILES: O=C(O)c1cc2ccc(=O)oc2cc1O
- IC50 [5]: 145 µM
- IC50 [7]: 27.2 µM
- IC50 [8]: 0.34 µM

SMILES: O=C1CCOc2ccc(OCCN3CCCCCC3)cc21
- IC50 [10]: 13.7 µM
- IC50 [4]: 4.88 µM
- IC50 [11]: 1.11 µM

SMILES: O=c1ccc2cc(O)c(O)cc2o1 [ESCULETIN]
- IC50 [5]: 6.13 µM
- IC50 [7]: 8.66 µM

- IC50 [12]: 12.54 µg/mL (≈ 50.1 µM)
SMILES: Cc1c(C)c2c(c(C)c1O)CCC(C)(C(=O)O)O2 (stereo not drawn) [TROLOX]

SMILES: O=C1OC2=C(O)C(O)=CCC2C=C1c1ccc(O)c(O)c1 (stereo not drawn)
- IC50 [4]: 3.04 µM

SMILES: COc1cc2ccc(=O)oc2cc1O [SCOPOLETIN]
- IC50 [5]: 154 µM
- IC50 [7]: 159 µM
- IC50 [8]: 159 µM

SMILES: O=c1c(O)c(-c2ccc(O)c(O)c2)oc2cc(O)cc(O)c12 [QUERCETIN]
- IC50 [12]: 3.18 µg/mL (≈ 10.5 µM)

SMILES: O=c1oc2ccccc2cc1-c1ccc(Br)cc1
- IC50 [4]: 19.2 µM

SMILES: O=c1oc2c(O)cccc2cc1-c1ccccc1
- IC50 [9]: 13.1 µM

SMILES: COc1cc(OC)c2c(=O)c(OCCCCn3cc(CN4C(=O)C(=O)c5ccccc54)nn3)c(-c3ccc(OC)c(OC)c3)oc2c1
- IC50 [7]: 11.2 µM

SMILES: COc1cc(Cn2cc(COc3ccc4ccc(=O)oc4c3C(C)=O)nn2)cc(OC)c1
- IC50 [13]: 10.7 µM
- IC50 [5]: 2.57 µM
- IC50 [7]: 3.26 µM

SMILES: O=c1ccc2ccc(O)cc2o1 [UMBELLIFERONE]
- IC50 [7]: 105 µM
- IC50 [8]: 143 µM

SMILES: O=C(NCCCN1CCOCC1)c1cc2ccc(OCc3cn(Cc4cccc(Cl)c4Cl)nn3)cc2oc1=O
- IC50 [14]: 1.71 µM
- IC50 [13]: 21.1 µM

SMILES: COc1cc2oc(=O)ccc2cc1O [ISOSCOPOLETIN]
- IC50 [5]: 174 µM
- IC50 [7]: 110 µM
- IC50 [8]: 146 µM

- IC50 [12]: 10.52 µg/mL (≈ 59.7 µM)
SMILES: O=C1O[C@H]([C@@H](O)CO)C(O)=C1O [ASCORBIC ACID]

SMILES: COc1cc2cc(-c3ccc(CN(C)Cc4ccccc4)cc3)c(=O)oc2cc1OC
- IC50 [15]: 48.9 µM

SMILES: Cc1cc(=O)oc2cc(OCc3nnc(-c4cc(O)c(O)c(O)c4)o3)ccc12
- IC50 [1]: 28.7 µM
- Ratio IC50 [2]: 1.65

SMILES: COc1cccc2cc(C(=O)NCc3cnnn3Cc3ccccc3Cl)c(=O)oc12
- IC50 [16]: 96.1 µM
- IC50 [17]: 15.4 µM
